Test results: patent US8993606B2, “Oral formulations for treating metal overload” (FerroKin BioSciences, Inc., priority 2011, dated 2015)
Counter-ions that a name gives are not always drawn.

Assays:
Assay type in all cases: physicochemical
[1] = Slurry experiments of magnesium salt form A, XRPD result; set-up: key: IS stands for insufficient solid
Description: The results of slurry experiments of (S)-3′-(OH)-DADFT-PE magnesium salt form A are given below in Table 36, wherein d stands for day, and IS stands for insufficient solid.

[2] = Solvent grinding experiments of magnesium salt form A, XRPD result; details: solvent printed as — (none)
Description: The results of solvent grinding experiments of (S)-3′-(OH)-DADFT-PE magnesium salt form A are given below in Table 39, wherein LC stands for low crystallinity.

[3] = Vapor stress experiments of amorphous magnesium salt, XRPD result; set-up: key: IS stands for insufficient solid
Description: The results of vapor stress experiments of amorphous (S)-3′-(OH)-DADFT-PE magnesium salt are given below in Table 37, wherein LC stands for low crystallinity and IS stands for insufficient solid.

[4] = Vapor diffusion experiments of amorphous magnesium salt, XRPD result; details: antisolvent Hexanes
Description: The results of vapor diffusion experiments of amorphous (S)-3′-(OH)-DADFT-PE magnesium salt are given below in Table 38, wherein LC stands for low crystallinity.

[5] = Relative humidity stress (deliquescence, hygroscopicity); details: ~75% RH stress
[6] = Aqueous solubility of salts; details: tromethamine salt; read-out: aqueous solubility
Description: Typically, oral formulations described herein facilitate solubilizing an active ingredient (e.g., a desazadesferrithiocin analog, salt or polymorph) at a desired amount or rate suitable for the treatment of metal overload. As used herein, the term “solubility” is generally intended to be synonymous with the term “aqueous solubility,” and refers to the ability, and the degree of the ability, of a compound to dissolve in water or an aqueous solvent or buffer, as might be found under physiological conditions. Aqueous solubility is, in and of itself, a useful quantitative measure, but it has additional utility as a correlate and predictor, with some limitations which will be clear to those of skill in the art, of oral bioavailability. Typically, a soluble compound is generally desirable, and the more soluble, the better. In liquid formulations, solubility is typically reported in mg/mL, but other measures, such as g/g, may be used. Solubilities typically deemed acceptable may range from 1 mg/mL into the hundreds or thousands of mg/mL.
Solubility may be measured under varying conditions. For example, it may be measured under conditions similar to those found in the body, such as at gastric pH or at physiologic or near-physiologic pH. “Gastric pH” as used herein means about pH 1. […]

[7] = Dynamic vapor sorption/desorption (DVS)
Description: As described above, Form D was obtained via DVS experimentation with Form B, and Form B was generated with crystallization experiments using solvent mixtures containing methanol or water (e.g., MeOH/acetone, IPA/MeOH, heptane/MeOH, water (solvent grinding), water (antisolvent precipitation), or water (slurry at ambient)). DVS experimentation with Form B is as follows: Dynamic vapor sorption/desorption (DVS) data were collected on a VTI SGA-100 Vapor Sorption Analyzer. Sorption and desorption data were collected over a range of 5% to 95% relative humidity (RH) at 10% RH intervals under a nitrogen purge. Samples were not dried prior to analysis. Equilibrium criteria used for analysis were less than 0.0100% weight change in 5 minutes, with a maximum equilibration time of 3 hours if the weight criterion was not met. Data were not corrected for the initial moisture content of the sample. Sodium chloride and polyvinylpyrrolidine were used as calibration standards.

COCCOCCOCCOc1cccc(C2=N[C@@](C)(C(=O)[O-])CS2)c1O.COCCOCCOCCOc1cccc(C2=N[C@@](C)(C(=O)[O-])CS2)c1O.[Mg+2] [listing 1 of 2 here]
XRPD Result ([1]; solvent ACN/THF (1:1), 60° C./4 d): A + peaks
XRPD Result ([1]; solvent EtOH/H2O (1:1), Ambient): IS
XRPD Result ([1]; solvent EtOH/H2O (1:9), Ambient): IS
XRPD Result ([1]; solvent Heptane/DCM (2:8), Ambient): A (LC)
XRPD Result ([1]; solvent Heptane/EtOH (2:8), Ambient): Amorphous
XRPD Result ([1]; solvent IPA, 60° C./4 d): Amorphous
XRPD Result ([1]; solvent IPA/Acetone (1:1), Ambient): IS
XRPD Result ([1]; solvent Water, 60° C./1 d): Amorphous
XRPD Result [2]: A (LC)

COCCOCCOCCOc1cccc(C2=N[C@@](C)(C(=O)[O-])CS2)c1O.COCCOCCOCCOc1cccc(C2=N[C@@](C)(C(=O)[O-])CS2)c1O.[Mg+2] [listing 2 of 2 here]
XRPD Result ([3]; solvent 1,4-Dioxane): IS
XRPD Result ([3]; solvent Acetone): A (LC)
XRPD Result ([3]; solvent DCM): IS
XRPD Result ([3]; solvent EtOAc): IS
XRPD Result ([3]; solvent MEK): IS
XRPD Result ([4]; solvent Acetone): A (LC)
XRPD Result ([4]; solvent DCM): A (LC)
XRPD Result ([4]; solvent EtOAc): A (LC)
XRPD Result ([4]; solvent MEK): Amorphous
XRPD Result ([4]; solvent THF): A (LC)
XRPD Result ([4]; solvent Toluene): A (LC)

COCCOCCOCCOc1ccc(C2=N[C@@](C)(C(=O)O)CS2)c(O)c1 [Compound 2, Tromethamine salt of (S)-4′-(OH)-DADFT-PE]
deliquescence upon RH stress [5]: no apparent deliquescence
solubility [6]: > 124 mg/mL
weight gained ([7]; above ~65% RH): ~50.3 wt %
water uptake ([7]; below ~65% RH): ~1.5 wt %

COCCOCCOCCOc1cccc(C2=N[C@@](C)(C(=O)O)CS2)c1O [Form B, (S)-3′-(OH)-DADFT-PE magnesium salt form B]
hygroscopicity (DVS data) [7]: hygroscopic
weight loss upon desorption [7]: 26.6%
additional weight gain during sorption step ([7]; above 65% RH, without reaching equilibrium weight): 21.2%
weight loss upon equilibrium ([7]; at 5% RH): 10.8%
weight gain during sorption step ([7]; from 5% to 65% RH): 5.7%
